Patent publication US9289421B2, “Methods and compositions for reducing serum levels of immunoglobulin E (IgE)” (priority 2011, dated 2016)
“Also recorded” adds a separate entry of the source.

What was measured:
[1] = test system: serum levels of total IgE; experiment: Total serum IgE by ELISA, OVA/ALUM sensitization and boost in BALB/c mice; type: in vivo; settings: for IgE levels: THC- or LPI-pretreated B/c mice, OVA/Alum
Method: (§1) In in vivo IgE-induction models using OVA/Alum or KLH/Ribi, the role of GPR55, in cannabinoid effects on antibody production has been investigated. BALB/c (B/c), C57BL/6 (B6), or B6 CB2 deficient (CB2^−/−) mice were pretreated with THC or L-α-lysophosphatidylinositol (LPI) prior to injections with OVA/Alum or KLH/Ribi, followed by boosting with same antigens. The mice were then bled on various days after boosting and total serum IgE was determined.
Mice were pretreated with SR2/Gp1a, Gp1a, or not pretreated, and 18 hrs later were sensitized with OVA/ALUM followed by a boost with same antigen. The sera were collected 6 days after the antigen boost injection and ELISAs were performed for IgE. Data represent sera from 4-8 mice/group+/−SEM. *=p≦0.05 from Normal; #=p≦0.05 from OVA/ALUM or SR2/OVA/ALUM.

[2] = test system: serum levels of total IgE; experiment: Total serum IgE by ELISA, OVA/ALUM sensitization and boost in C57BL/6 and CB2-/- mice; type: in vivo, C57BL/6 (B6) and CB2-/- mice; settings: for serum levels of total IgE: THC pretreatment
Method: FIG. 4 is a graph illustrating that serum levels of total IgE were increased with THC pretreatment over C57BL/6 (B6) mice; CB2 deficient mice (CB2^−/−) over B6; and THC pretreatment CB2^−/− over B6 and THC/B6. SR141716A (SR1; CB1 antagonist) pretreatment of CB2^−/− had little effect on total IgE levels. The mice were treated OVA/ALUM following a boost of same antigen. The sera were collected at Day 5-6 after the boost and ELISAs were performed. Data represent serum from individual mice (4-9 mice/group+/−SEM). *=p≦0.05 from Normal; #=p≦0.05 from OVA/ALUM; ##=p<0.05 from THC/OVA/ALUM
as §1

total serum IgE [3] = experiment: Total serum IgE, KLH/Ribi IgE-induction model in BALB/c mice; type: in vivo; settings: THC-treated B/c mice
Method: as §1

total serum IgE [4] = experiment: Total serum IgE, KLH/RIBI IgE-induction model in B6 and CB2-/- mice; type: in vivo, C57BL/6 (B6) and CB2-/- mice; settings: compared with OVA/ALUM
Method: as §1

Compound: Cc1ccc2c(c1)Cc1c(C(=O)NN3CCCCC3)nn(-c3ccc(Cl)cc3Cl)c1-2 [Gp1a, N-(Piperidin-1-yl)-1-(2,4-dichlorophenyl)-1,4-dihydro-6-methylindeno[1,2-c]pyrazole-3-carboxamide]
- serum levels of total IgE ([1]; BALB/c mice, pretreated 18 hrs before OVA/ALUM, sera 6 days after boost): attenuates; also recorded: caused a decrease in IgE

Compound: Cc1c(C(=O)NN2CCCCC2)nn(-c2ccc(Cl)cc2Cl)c1-c1ccc(Cl)cc1 [SR141716A]
- IgE response ([2]; B6 and CB2-/- mice, CB1 antagonist given prior to THC dosing): only slightly elevated
- total IgE levels ([2]; CB2-/- mice, SR1 pretreatment, OVA/ALUM): little effect

Compound: Cc1ccc(Cn2nc(C(=O)N[C@@H]3C(C)(C)[C@@H]4CC[C@@]3(C)C4)cc2-c2ccc(Cl)c(C)c2)cc1 [SR144528, 5-(4-chloro-3-methylphenyl)-1-[(4-methylphenyl)methyl]-N-[(1S,2S,4R)-1,3,3-trimethylbicyclo[2.2.1]hept-2-yl]-1H-pyrazole-3-carboxamide]
- effect on the Gp1a attenuation of serum total IgE ([1]; BALB/c mice, co-treatment with Gp1a (SR2/Gp1a), OVA/ALUM): reversed; also recorded: reverses the Gp1a effect

Compound: CCCCCc1cc(O)c2c(c1)OC(C)(C)[C@@H]1CCC(C)=C[C@@H]21 [THC, Δ^9-tetrahydrocannabinol]
- IgE levels [1]: elevated
- serum levels of total IgE ([2]; C57BL/6 (B6) mice, OVA/ALUM, sera Day 5-6 after boost): increased
- serum levels of total IgE ([2]; CB2-/- mice, OVA/ALUM, vs B6 and THC/B6): increased; also recorded: augmented this effect
- IgE levels (total serum IgE [3]): elevated
- IgE levels (total serum IgE [4]): increased IgE levels greater than OVA/ALUM

Compound: L-α-lysophosphatidylinositol [LPI]
- IgE levels [1]: enhanced
